In patent US20250296959A1, “B7-H3 TARGETING PEPTIDES AND CONSTRUCTS THEREOF” (Mariana Oncology Inc., priority 2024, published 2025):
Starred links: 1 amine or outer side, 2 acyl side, 3 side chain; linkers in the order of their positions; H or OH if unused. Positions of bridges follow the written chain, without caps; N, C: chain ends. Non-standard residues stand in square brackets, D forms with d. Residues, ends and D or L forms follow the SMILES beside them. Groups on a side chain read outwards from the residue. ξ: configuration not given here. *: point of attachment. X6 = CSCC[C@H](NC(=O)c1ccc(CNC(=O)CN2CCN(CC(=O)O)CCN(CC(=O)O)CCN(CC(=O)O)CC2)cc1)C(=O)N[C@H](C(=O)N[C@@H](CCCCN*)C(=O)O)C(C)C; Ala(piperidin-4-yl) = O=C([C@H](CC1CCN([*:3])CC1)N[*:1])[*:2]; DOTA = O=C(O)CN1CCN(CC(=O)O)CCN(CC(=O)*)CCN(CC(=O)O)CC1; NH(CH2CH2O)4CH2CO = O=C(COCCOCCOCCOCCN[*:1])[*:2]; Trp(5-F) = N[C@@H](Cc1c[nH]c2ccc(F)cc12)C(=O)O; X1 = C[C@@H](c1ccccc1)[C@H](N[*:1])C(=O)[*:2]; 1Nal = N[C@@H](Cc1cccc2ccccc12)C(=O)O; Ala(4-THP) = N[C@@H](CC1CCOCC1)C(=O)O; X3 = O=C([C@H](CCC1CCC1)N[*:1])[*:2]; Val(3-OH) = CC(C)(O)[C@H](N)C(=O)O; PEG4 = NCCOCCOCCOCCOCCC(=O)O; Tle = CC(C)(C)[C@H](N)C(=O)O; hLeu = CC(C)CC[C@H](N)C(=O)O; Nle = CCCC[C@H](N)C(=O)O; Orn = NCCC[C@H](N)C(=O)O; ξV = CC(C)C(N)C(=O)O

These molecules were tested against T1, human 4lg B7-H3 (Homo sapiens, UniProt Q5ZPR3) (assay: Affinity determination by surface plasmon resonance (SPR) to 4Ig B7-H3). Conditions: SPR KD—25° C., 4Ig B7-H3; 25° C. flow cell temperature.
T1 sequence (Q5ZPR3 29-534): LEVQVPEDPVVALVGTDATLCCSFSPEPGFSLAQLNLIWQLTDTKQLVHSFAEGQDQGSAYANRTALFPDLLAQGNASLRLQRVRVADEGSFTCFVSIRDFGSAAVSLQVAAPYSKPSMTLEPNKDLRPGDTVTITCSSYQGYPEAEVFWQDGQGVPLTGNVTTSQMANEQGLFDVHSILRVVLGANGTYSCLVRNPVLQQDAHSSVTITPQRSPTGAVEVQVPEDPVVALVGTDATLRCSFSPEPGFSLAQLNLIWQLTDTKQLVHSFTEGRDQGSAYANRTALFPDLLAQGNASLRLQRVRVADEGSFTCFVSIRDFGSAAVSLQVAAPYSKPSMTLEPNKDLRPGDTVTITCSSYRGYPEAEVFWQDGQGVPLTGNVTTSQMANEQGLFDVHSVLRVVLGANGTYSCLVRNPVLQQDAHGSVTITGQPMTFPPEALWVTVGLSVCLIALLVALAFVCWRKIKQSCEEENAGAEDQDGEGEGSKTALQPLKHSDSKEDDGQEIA
Molecule `CCCC[C@H](NC(C)=O)C(=O)N[C@@H](Cc1ccc(O)cc1)C(=O)N[C@H]1CSSC[C@@H](C(=O)N[C@@H](Cc2c[nH]c3ccccc23)C(=O)N[C@@H](Cc2ccccc2)C(=O)N[C@H](C(=O)N[C@H](CCCCNC(=O)CN2CCN(CC(=O)O)CCN(CC(=O)O)CCN(CC(=O)O)CC2)C(N)=O)[C@@H](C)O)NC(=O)[C@H](Cc2ccc(O)cc2)NC(=O)[C@H](C(C)C)NC(=O)[C@H](CC(=O)O)NC(=O)[C@H](Cc2ccc(O)cc2)NC(=O)[C@H](CCCC)NC(=O)CNC(=O)[C@H](C(C)C)NC1=O` [compound 66, Ac-Nle-Y-C-V-G-Nle-Y-D-V-Y-C-W-F-Thr-dLys(DOTA)-CONH2] (Ac-[Nle]YCVG[Nle]YDVYCWFT[dK](DOTA)-NH2; disulfide 3-11) has a Kd of 10 to 100 nM. Work on `CCCC[C@H](NC(C)=O)C(=O)N[C@@H](Cc1ccc(O)cc1)C(=O)N[C@H]1CSSC[C@@H](C(=O)N[C@@H](Cc2cccc3ccccc23)C(=O)N[C@@H](Cc2ccccc2)C(=O)N[C@H](C(=O)N[C@H](CCCCNC(=O)CN2CCN(CC(=O)O)CCN(CC(=O)O)CCN(CC(=O)O)CC2)C(N)=O)[C@@H](C)O)NC(=O)[C@H](Cc2ccc(O)cc2)NC(=O)C(C(C)C)NC(=O)[C@H](CC(=O)O)NC(=O)[C@H](Cc2ccc(O)cc2)NC(=O)[C@H](CCCCN)NC(=O)CNC(=O)[C@H](C(C)C)NC1=O` (stereo partly drawn) [compound 128, Ac-Nle-Y-C-V-G-K-Y-D-V-Y-C-1Nal-F-Thr-dLys(DOTA)-CONH2] (Ac-[Nle]YCVGKYD[ξV]YC[1Nal]FT[dK](DOTA)-NH2; disulfide 3-11) yielded a Kd of 1 to 10 nM. For `CC(C)CC[C@H](NC(=O)COCCOCCOCCOCCNC(=O)CN1CCN(CC(=O)O)CCN(CC(=O)O)CCN(CC(=O)O)CC1)C(=O)N[C@@H](Cc1ccc(O)cc1)C(=O)N[C@H]1CSSC[C@@H](C(=O)N[C@@H](Cc2c[nH]c3ccc(F)cc23)C(=O)N[C@@H](Cc2ccccc2)C(=O)N2CCC[C@H]2C(=O)O)NC(=O)[C@H](Cc2ccc(O)cc2)NC(=O)[C@H](C(C)C)NC(=O)[C@H](CC(=O)O)NC(=O)[C@H](CC2CCOCC2)NC(=O)[C@H](CCCCN)NC(=O)CNC(=O)[C@H](C(C)(C)C)NC1=O` [Cpd #306, DOTA-PEG4-hLeu-Y-C-Tbg-G-K-ThpA-D-V-Y-C-5FW-F-Pro-COOH] ({DOTA}-[NH(CH2CH2O)4CH2CO][hLeu]YC[Tle]GK[Ala(4-THP)]DVYC[Trp(5-F)]FP-OH; disulfide 4-12), the Kd was 10 to 100 nM. In the case of `CCCC[C@@H]1NC(=O)[C@@H](NC(=O)[C@H](Cc2ccc(O)cc2)NC(=O)[C@H](CCC(C)C)NC(C)=O)CSSC[C@@H](C(=O)N[C@@H](Cc2c[nH]c3ccc(F)cc23)C(=O)N[C@@H](Cc2ccccc2)C(=O)N[C@H](C(=O)N[C@H](CCCCNC(=O)CN2CCN(CC(=O)O)CCN(CC(=O)O)CCN(CC(=O)O)CC2)C(N)=O)[C@@H](C)O)NC(=O)[C@H](Cc2ccc(O)cc2)NC(=O)[C@H](C(C)C)NC(=O)[C@H](CC(=O)O)NC(=O)[C@H](Cc2ccc(O)cc2)NC(=O)[C@H](CCCCN)NC(=O)CNC1=O` [compound 217, Ac-hLeu-Y-C-Nle-G-K-Y-D-V-Y-C-5FW-F-Thr-dLys(DOTA)-CONH2] (Ac-[hLeu]YC[Nle]GKYDVYC[Trp(5-F)]FT[dK](DOTA)-NH2; disulfide 3-11), the Kd is reported as 1 to 10 nM. For `CC(=O)N[C@@H](CCC(C)C)C(=O)N[C@@H](Cc1ccc(O)cc1)C(=O)N[C@H]1CSSC[C@@H](C(=O)N[C@@H](Cc2c[nH]c3ccccc23)C(=O)N[C@@H](Cc2ccccc2)C(=O)N2CCC[C@H]2C(=O)N[C@@H](CCCCNC(=O)CN2CCN(CC(=O)O)CCN(CC(=O)O)CCN(CC(=O)O)CC2)C(N)=O)NC(=O)[C@H](Cc2ccc(O)cc2)NC(=O)[C@H](C(C)C)NC(=O)[C@H](CC(=O)O)NC(=O)[C@H](Cc2ccc(O)cc2)NC(=O)[C@H](CCCCN)NC(=O)CNC(=O)[C@H](C(C)C)NC1=O` [compound 141, Ac-hLeu-Y-C-V-G-K-Y-D-V-Y-C-W-F-Pro-dLys(DOTA)-CONH2] (Ac-[hLeu]YCVGKYDVYCWFPK(DOTA)-NH2; disulfide 3-11), the Kd was 1 to 10 nM. `CC(=O)N[C@@H](CCC(C)C)C(=O)N[C@@H](Cc1ccc(O)cc1)C(=O)N[C@H]1CSSC[C@@H](C(=O)N[C@@H](Cc2c[nH]c3ccc(F)cc23)C(=O)N[C@@H](Cc2ccccc2)C(=O)N2CCC[C@H]2C(=O)N[C@H](CCCCNC(=O)CN2CCN(CC(=O)O)CCN(CC(=O)O)CCN(CC(=O)O)CC2)C(=O)O)NC(=O)[C@H](Cc2ccc(O)cc2)NC(=O)[C@H](C(C)C)NC(=O)[C@H](CC(=O)O)NC(=O)[C@H](CC2CCOCC2)NC(=O)[C@H](CCCN)NC(=O)CNC(=O)[C@H](C(C)(C)C)NC1=O` [compound 312, Ac-hLeu-Y-C-Tbg-G-Orn-ThpA-D-V-Y-C-5FW-F-Pro-dLys(DOTA)-COOH] (Ac-[hLeu]YC[Tle]G[Orn][Ala(4-THP)]DVYC[Trp(5-F)]FP[dK](DOTA)-OH; disulfide 3-11) showed a Kd of 1 to 10 nM. Molecule `CC(=O)N[C@@H](CCC(C)C)C(=O)N[C@@H](Cc1ccc(O)cc1)C(=O)N[C@H]1CSSC[C@@H](C(=O)N[C@@H](Cc2c[nH]c3ccccc23)C(=O)N[C@@H](Cc2ccccc2)C(=O)N[C@H](C(N)=O)[C@@H](C)O)NC(=O)[C@H](Cc2ccc(O)cc2)NC(=O)[C@H](C(C)C)NC(=O)[C@H](CC(=O)O)NC(=O)[C@H](Cc2ccc(O)cc2)NC(=O)[C@H](CCCCNC(=O)CN2CCN(CC(=O)O)CCN(CC(=O)O)CCN(CC(=O)O)CC2)NC(=O)CNC(=O)[C@H](C(C)C)NC1=O` [compound 145, Ac-hLeu-Y-C-V-G-Lys(DOTA)-Y-D-V-Y-C-W-F-Thr-CONH2] (Ac-[hLeu]YCVGK(DOTA)YDVYCWFT-NH2; disulfide 3-11) has a Kd of 1 to 10 nM. `CCCC[C@H](NC(C)=O)C(=O)N[C@@H](Cc1ccc(O)cc1)C(=O)N[C@H]1CSSC[C@@H](C(=O)N[C@@H](Cc2c[nH]c3ccccc23)C(=O)N[C@@H](Cc2ccccc2)C(=O)N[C@H](C(=O)N[C@H](CCCCNC(=O)CN2CCN(CC(=O)O)CCN(CC(=O)O)CCN(CC(=O)O)CC2)C(N)=O)[C@@H](C)O)NC(=O)[C@H](Cc2ccc(O)cc2)NC(=O)[C@H](C(C)C)NC(=O)[C@H](CC(N)=O)NC(=O)[C@H](Cc2ccc(O)cc2)NC(=O)[C@H](CCCCN)NC(=O)CNC(=O)[C@H](C(C)C)NC1=O` [compound 80, Ac-Nle-Y-C-V-G-K-Y-N-V-Y-C-W-F-Thr-dLys(DOTA)-CONH2] (Ac-[Nle]YCVGKYNVYCWFT[dK](DOTA)-NH2; disulfide 3-11) showed a Kd of 10 to 100 nM.

Same assay, conditions: SPR KD—37° C., 4Ig B7-H3; 37° C. flow cell temperature
Work on `CC(=O)N[C@@H](CCC1CCC1)C(=O)N[C@@H](Cc1ccc(O)cc1)C(=O)N[C@H]1CSSC[C@@H](C(=O)N[C@@H](Cc2c[nH]c3ccc(F)cc23)C(=O)N[C@@H](Cc2ccccc2)C(=O)N[C@H](C(=O)N[C@H](CCCCNC(=O)CN2CCN(CC(=O)O)CCN(CC(=O)O)CCN(CC(=O)O)CC2)C(=O)O)C(C)(C)O)NC(=O)[C@H](Cc2ccc(O)cc2)NC(=O)[C@H](C(C)C)NC(=O)[C@H](CC(=O)O)NC(=O)[C@H](CC2CCOCC2)NC(=O)[C@H](CC2CCNCC2)NC(=O)CNC(=O)[C@H](C(C)(C)C)NC1=O` [compound 443, Ac-hCba-Y-C-Tbg-G-PipAla-ThpA-D-V-Y-C-5FW-F-hydroxyVal-dLys(DOTA)-COOH] (Ac-[X3]YC[Tle]G[Ala(piperidin-4-yl)][Ala(4-THP)]DVYC[Trp(5-F)]F[Val(3-OH)][dK](DOTA)-OH; disulfide 3-11) yielded a Kd of under 1 nM. `CSCC[C@H](NC(=O)c1ccc(CNC(=O)CN2CCN(CC(=O)O)CCN(CC(=O)O)CCN(CC(=O)O)CC2)cc1)C(=O)N[C@H](C(=O)N[C@@H](CCCCNC(=O)[C@@H](NC(=O)[C@@H](NC(=O)[C@H](Cc1c[nH]c2ccc(F)cc12)NC(=O)[C@@H]1CSSC[C@H](NC(=O)[C@H](Cc2ccc(O)cc2)NC(=O)[C@H](CCC(C)C)NC(C)=O)C(=O)N[C@@H](C(C)(C)C)C(=O)NCC(=O)N[C@@H](CC2CCNCC2)C(=O)N[C@@H](CC2CCOCC2)C(=O)N[C@@H](CC(=O)O)C(=O)N[C@@H](C(C)C)C(=O)N[C@@H](Cc2ccc(O)cc2)C(=O)N1)[C@@H](C)c1ccccc1)C(C)(C)O)C(=O)O)C(C)C` [Cpd #517, Ac-hLeu-Y-C-Tbg-G-PipAla-ThpA-D-V-Y-C-5FW-[(2S, 3S)beta-Me-Phe]-hydroxyVal-&Lys(Val-Met-AmBz-DOTA)-COOH] (Ac-[hLeu]YC[Tle]G[Ala(piperidin-4-yl)][Ala(4-THP)]DVYC[Trp(5-F)][X1][Val(3-OH)]-X6; disulfide 3-11) showed a Kd of under 1 nM. `CC(=O)N[C@@H](CCC(C)C)C(=O)N[C@@H](Cc1ccc(O)cc1)C(=O)N[C@H]1CSSC[C@@H](C(=O)N[C@@H](Cc2c[nH]c3ccc(F)cc23)C(=O)N[C@@H](Cc2ccccc2)C(=O)N[C@H](C(=O)N[C@H](CO)C(=O)O)C(C)(C)O)NC(=O)[C@H](Cc2ccc(O)cc2)NC(=O)[C@H](C(C)C)NC(=O)[C@H](CC(=O)O)NC(=O)[C@H](CC2CCN(C(=O)CCOCCOCCOCCOCCNC(=O)CN3CCN(CC(=O)O)CCN(CC(=O)O)CCN(CC(=O)O)CC3)CC2)NC(=O)[C@H](CC2CCOCC2)NC(=O)CNC(=O)[C@H](C(C)(C)C)NC1=O` [compound 484, Ac-hLeu-Y-C-Tbg-G-ThpA-Pip(PEG4-DOTA)Ala-D-V-Y-C-5FW-F-hydroxyVal-dSer-COOH] (Ac-[hLeu]YC[Tle]G[Ala(4-THP)][Ala(piperidin-4-yl)]([PEG4-DOTA])DVYC[Trp(5-F)]F[Val(3-OH)][dS]-OH; disulfide 3-11) showed a Kd of under 1 nM.
